ChEMBL document CHEMBL1201862, “PubChem BioAssay data set” (2004)
Activity calls are given as the source filed them.

Key:
[1] = molecular target: Serine/threonine-protein kinase MRCK alpha (Homo sapiens, UniProt Q5VT25); format: functional
[2] = molecular target: Serine/threonine-protein kinase pim-3 (Homo sapiens, UniProt Q86V86); format: functional;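 note: value obtained as one member of a broad kinase panel profiling effort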
[3] = molecular target: Serine/threonine-protein kinase D3 (Homo sapiens, UniProt O94806); format: functional;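 note: determined within a kinase panel screen, with PRKCN as the panel member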
[4] = molecular target: Cyclin-dependent kinase 5 (Homo sapiens, UniProt Q00535); format: functional;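 note: CDK5 measured as one member of a kinase profiling panel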
[5] = molecular target: Serine/threonine-protein kinase pim-1 (Homo sapiens, UniProt P11309); format: functional
[6] = molecular target: RAC-gamma serine/threonine-protein kinase (Homo sapiens, UniProt Q9Y243); format: functional
Sequence of RAC-gamma serine/threonine-protein kinase (Q9Y243 whole entry): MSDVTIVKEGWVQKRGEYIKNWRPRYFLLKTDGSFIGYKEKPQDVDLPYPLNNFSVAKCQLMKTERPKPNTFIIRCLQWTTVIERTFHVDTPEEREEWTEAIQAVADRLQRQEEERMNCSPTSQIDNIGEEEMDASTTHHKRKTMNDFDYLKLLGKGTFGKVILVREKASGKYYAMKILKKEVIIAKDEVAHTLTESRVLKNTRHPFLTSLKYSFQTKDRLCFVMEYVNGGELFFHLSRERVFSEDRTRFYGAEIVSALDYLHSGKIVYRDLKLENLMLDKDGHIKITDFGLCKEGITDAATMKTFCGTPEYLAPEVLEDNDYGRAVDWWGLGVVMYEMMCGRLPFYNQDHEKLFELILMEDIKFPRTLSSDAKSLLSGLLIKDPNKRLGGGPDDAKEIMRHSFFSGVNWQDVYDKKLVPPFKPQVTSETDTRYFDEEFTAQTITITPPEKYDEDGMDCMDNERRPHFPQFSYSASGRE

[7] = molecular target: Mitogen-activated protein kinase kinase kinase kinase 5 (Homo sapiens, UniProt Q9Y4K4); format: functional;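 note: measured as one member of a kinome-spanning kinase panel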
LIM domain kinase 1 = LIM domain kinase 1 (Homo sapiens, UniProt P53667); test: Navigating the Kinome. Panel member name: LIMK1; format: functional
[8] = molecular target: MAP kinase-activated protein kinase 3 (Homo sapiens, UniProt Q16644); format: functional;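 note: value comes from a kinome-wide profiling panel in which MAPKAPK3 is one of the panel members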
Sequence of MAP kinase-activated protein kinase 3 (Q16644 whole entry): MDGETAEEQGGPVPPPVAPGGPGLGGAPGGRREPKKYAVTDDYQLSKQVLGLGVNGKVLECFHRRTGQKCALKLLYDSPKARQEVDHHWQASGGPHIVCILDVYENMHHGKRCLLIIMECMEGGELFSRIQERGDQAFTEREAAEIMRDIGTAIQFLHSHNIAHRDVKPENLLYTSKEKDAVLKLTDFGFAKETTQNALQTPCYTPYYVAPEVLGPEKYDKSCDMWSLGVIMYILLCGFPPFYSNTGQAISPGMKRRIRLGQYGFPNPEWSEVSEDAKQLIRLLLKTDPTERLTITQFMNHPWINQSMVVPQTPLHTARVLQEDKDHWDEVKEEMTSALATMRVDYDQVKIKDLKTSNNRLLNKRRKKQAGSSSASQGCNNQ

[9] = molecular target: Serine/threonine-protein kinase PAK 1 (Homo sapiens, UniProt Q13153); format: functional
Sequence of Serine/threonine-protein kinase PAK 1 (Q13153 whole entry): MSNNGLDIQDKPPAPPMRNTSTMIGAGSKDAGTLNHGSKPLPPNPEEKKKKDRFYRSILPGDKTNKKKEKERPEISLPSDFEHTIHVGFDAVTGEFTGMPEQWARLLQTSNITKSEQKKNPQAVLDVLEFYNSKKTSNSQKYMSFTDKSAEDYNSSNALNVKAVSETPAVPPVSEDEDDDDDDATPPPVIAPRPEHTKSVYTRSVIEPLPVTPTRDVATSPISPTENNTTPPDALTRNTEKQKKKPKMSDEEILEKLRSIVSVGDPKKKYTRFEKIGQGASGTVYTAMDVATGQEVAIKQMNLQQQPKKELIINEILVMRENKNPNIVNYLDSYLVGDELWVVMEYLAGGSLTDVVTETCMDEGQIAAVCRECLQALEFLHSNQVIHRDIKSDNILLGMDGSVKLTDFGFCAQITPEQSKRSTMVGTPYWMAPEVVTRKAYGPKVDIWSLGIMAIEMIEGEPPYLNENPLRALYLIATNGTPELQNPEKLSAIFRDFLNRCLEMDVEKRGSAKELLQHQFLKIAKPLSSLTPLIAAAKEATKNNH

[10] = molecular target: Rho-associated protein kinase 1 (Homo sapiens, UniProt Q13464); format: functional;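 note: measured within a broad kinome-wide panel profiling many kinases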
Sequence of Rho-associated protein kinase 1 (Q13464 whole entry): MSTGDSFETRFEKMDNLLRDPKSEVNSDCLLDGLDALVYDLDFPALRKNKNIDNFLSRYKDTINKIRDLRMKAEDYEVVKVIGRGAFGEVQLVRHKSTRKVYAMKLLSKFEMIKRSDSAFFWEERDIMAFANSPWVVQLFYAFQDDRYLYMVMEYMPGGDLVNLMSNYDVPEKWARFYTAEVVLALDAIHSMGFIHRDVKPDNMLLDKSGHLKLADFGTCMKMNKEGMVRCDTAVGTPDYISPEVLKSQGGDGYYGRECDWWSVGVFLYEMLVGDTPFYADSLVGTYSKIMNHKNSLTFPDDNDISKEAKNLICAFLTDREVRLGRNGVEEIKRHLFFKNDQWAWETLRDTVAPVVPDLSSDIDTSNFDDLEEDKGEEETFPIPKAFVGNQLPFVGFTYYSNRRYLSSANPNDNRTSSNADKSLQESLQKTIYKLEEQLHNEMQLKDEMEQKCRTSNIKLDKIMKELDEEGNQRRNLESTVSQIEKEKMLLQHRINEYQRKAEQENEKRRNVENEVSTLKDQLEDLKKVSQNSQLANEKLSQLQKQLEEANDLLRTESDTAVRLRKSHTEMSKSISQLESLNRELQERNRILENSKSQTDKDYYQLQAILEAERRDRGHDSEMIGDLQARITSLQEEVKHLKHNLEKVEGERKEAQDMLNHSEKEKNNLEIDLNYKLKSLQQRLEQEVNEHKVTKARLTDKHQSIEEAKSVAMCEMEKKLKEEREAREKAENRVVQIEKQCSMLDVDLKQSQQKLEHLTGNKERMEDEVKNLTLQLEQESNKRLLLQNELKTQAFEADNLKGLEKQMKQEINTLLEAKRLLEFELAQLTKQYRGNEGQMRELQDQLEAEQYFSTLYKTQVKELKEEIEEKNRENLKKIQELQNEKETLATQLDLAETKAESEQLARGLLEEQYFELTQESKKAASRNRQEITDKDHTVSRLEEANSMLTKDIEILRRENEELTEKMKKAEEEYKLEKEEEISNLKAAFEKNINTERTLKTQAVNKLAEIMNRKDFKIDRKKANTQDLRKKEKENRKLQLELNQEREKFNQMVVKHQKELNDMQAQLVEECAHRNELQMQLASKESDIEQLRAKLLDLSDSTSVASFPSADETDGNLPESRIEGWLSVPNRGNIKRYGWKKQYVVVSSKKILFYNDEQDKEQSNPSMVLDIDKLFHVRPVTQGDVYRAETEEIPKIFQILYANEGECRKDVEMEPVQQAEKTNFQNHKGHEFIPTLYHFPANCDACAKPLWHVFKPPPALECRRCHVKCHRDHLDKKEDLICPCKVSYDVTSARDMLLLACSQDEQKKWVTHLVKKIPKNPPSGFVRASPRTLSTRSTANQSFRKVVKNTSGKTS

[11] = molecular target: STE20-like serine/threonine-protein kinase (Homo sapiens, UniProt Q9H2G2); format: functional
[12] = molecular target: Serine/threonine-protein kinase DCLK1 (Homo sapiens, UniProt O15075); format: functional;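 note: affinity for DCLK1 (listed as DCAMKL1) measured as one member of a kinome-wide kinase profiling panel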
[13] = molecular target: Serine/threonine-protein kinase BRSK1 (Homo sapiens, UniProt Q8TDC3); format: functional;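 note: measured within a kinome-wide kinase panel, with the target listed as KIAA1811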
[14] = molecular target: Serine/threonine-protein kinase Nek2 (Homo sapiens, UniProt P51955); format: functional
Sequence of Serine/threonine-protein kinase Nek2 (P51955 whole entry): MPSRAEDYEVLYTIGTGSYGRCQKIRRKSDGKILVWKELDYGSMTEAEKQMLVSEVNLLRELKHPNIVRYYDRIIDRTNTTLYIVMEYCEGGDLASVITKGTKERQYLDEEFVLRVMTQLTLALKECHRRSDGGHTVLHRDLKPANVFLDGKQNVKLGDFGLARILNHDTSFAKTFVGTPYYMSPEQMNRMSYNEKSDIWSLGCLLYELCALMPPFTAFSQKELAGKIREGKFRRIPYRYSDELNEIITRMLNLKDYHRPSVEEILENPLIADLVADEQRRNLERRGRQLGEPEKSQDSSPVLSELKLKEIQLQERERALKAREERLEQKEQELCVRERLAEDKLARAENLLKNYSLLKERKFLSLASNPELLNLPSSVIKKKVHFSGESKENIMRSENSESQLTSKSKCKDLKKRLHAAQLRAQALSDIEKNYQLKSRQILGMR

[15] = molecular target: Mitogen-activated protein kinase kinase kinase kinase 4 (Homo sapiens, UniProt O95819); format: functional
[16] = molecular target: MAP kinase-interacting serine/threonine-protein kinase 2 (Homo sapiens, UniProt Q9HBH9); format: functional
Sequence of MAP kinase-interacting serine/threonine-protein kinase 2 (Q9HBH9 whole entry): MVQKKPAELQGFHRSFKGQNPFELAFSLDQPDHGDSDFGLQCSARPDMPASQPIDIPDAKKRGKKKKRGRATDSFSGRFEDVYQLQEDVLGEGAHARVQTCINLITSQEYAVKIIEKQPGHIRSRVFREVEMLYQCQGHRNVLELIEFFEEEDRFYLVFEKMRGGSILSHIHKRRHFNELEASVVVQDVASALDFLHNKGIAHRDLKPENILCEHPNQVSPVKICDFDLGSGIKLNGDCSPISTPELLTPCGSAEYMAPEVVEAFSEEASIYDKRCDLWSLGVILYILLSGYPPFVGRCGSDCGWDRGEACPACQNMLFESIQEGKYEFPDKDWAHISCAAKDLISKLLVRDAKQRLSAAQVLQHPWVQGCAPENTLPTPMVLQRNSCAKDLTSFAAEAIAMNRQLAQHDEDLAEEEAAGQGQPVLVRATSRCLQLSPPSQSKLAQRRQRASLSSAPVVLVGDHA

[17] = molecular target: Interleukin-1 receptor-associated kinase 4 (Homo sapiens, UniProt Q9NWZ3); format: functional
Sequence of Interleukin-1 receptor-associated kinase 4 (Q9NWZ3 whole entry): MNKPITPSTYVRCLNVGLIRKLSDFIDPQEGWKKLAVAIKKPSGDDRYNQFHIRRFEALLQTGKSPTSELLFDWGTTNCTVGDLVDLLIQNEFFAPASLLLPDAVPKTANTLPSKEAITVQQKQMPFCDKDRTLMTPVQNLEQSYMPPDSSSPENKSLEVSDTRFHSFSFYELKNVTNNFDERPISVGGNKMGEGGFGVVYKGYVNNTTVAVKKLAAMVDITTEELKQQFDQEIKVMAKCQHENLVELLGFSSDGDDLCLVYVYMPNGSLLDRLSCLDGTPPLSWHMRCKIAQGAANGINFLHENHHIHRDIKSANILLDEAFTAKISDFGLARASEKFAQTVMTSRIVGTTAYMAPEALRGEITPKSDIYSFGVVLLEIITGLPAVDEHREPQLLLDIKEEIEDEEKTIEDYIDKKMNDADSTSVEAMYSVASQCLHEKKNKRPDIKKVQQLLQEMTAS

[18] = molecular target: Dual specificity tyrosine-phosphorylation-regulated kinase 1A (Homo sapiens, UniProt Q13627); format: functional;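 note: measured against DYRK1A as one member of a broad kinome profiling panel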
[19] = molecular target: Serine/threonine-protein kinase TAO1 (Homo sapiens, UniProt Q7L7X3); format: functional
[20] = molecular target: Protein kinase C gamma type (Homo sapiens, UniProt P05129); format: functional
[21] = molecular target: G protein-coupled receptor kinase 5 (Homo sapiens, UniProt P34947); test: Navigating the Kinome. Panel member name: GPRK5; format: functional
[22] = rise of 4N DNA cells, HeLa – IC50, dose response (AID 1117351); format: functional, cell-based
[23] = molecular target: Dual specificity tyrosine-phosphorylation-regulated kinase 4 (Homo sapiens, UniProt Q9NR20); format: functional
[24] = molecular target: Testis-specific serine/threonine-protein kinase 2 (Homo sapiens, UniProt Q96PF2); format: functional;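 note: part of the Navigating the Kinome panel, target entry STK22B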
[25] = molecular target: Eukaryotic elongation factor 2 kinase (Homo sapiens, UniProt O00418); format: functional
[26] = molecular target: Lymphokine-activated killer T-cell-originated protein kinase (Homo sapiens, UniProt Q96KB5); format: functional;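 note: value comes from a kinase panel screen in which TOPK was one of the panel members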
Sequence of Lymphokine-activated killer T-cell-originated protein kinase (Q96KB5 whole entry): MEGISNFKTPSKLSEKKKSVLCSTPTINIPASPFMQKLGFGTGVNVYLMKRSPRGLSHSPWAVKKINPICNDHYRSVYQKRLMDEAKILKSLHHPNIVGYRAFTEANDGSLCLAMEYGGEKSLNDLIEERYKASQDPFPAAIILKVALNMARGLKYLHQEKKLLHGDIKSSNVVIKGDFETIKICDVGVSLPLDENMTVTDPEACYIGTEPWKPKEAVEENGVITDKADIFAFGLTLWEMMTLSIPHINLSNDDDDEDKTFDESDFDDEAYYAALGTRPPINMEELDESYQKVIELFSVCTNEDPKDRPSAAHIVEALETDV

[27] = molecular target: Dual specificity tyrosine-phosphorylation-regulated kinase 3 (Homo sapiens, UniProt O43781); format: functional;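 note: measured as one member of a broad kinase panel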
[28] = molecular target: Cell division cycle 7-related protein kinase (Homo sapiens, UniProt O00311); format: functional;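 note: value obtained from a kinome-wide kinase panel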
[29] = rise of 2N DNA cells, HeLa – IC50, dose response (AID 1117349); format: functional, cell-based
[30] = molecular target: T1, Apoptotic protease-activating factor 1 (Homo sapiens, UniProt O14727); test: SAR analysis of small molecule inhibitors of Apaf-1 in a Fluorescent assay.; format: functional; conditions: read-out: IC50_Mean
T1 sequence (O14727 whole entry): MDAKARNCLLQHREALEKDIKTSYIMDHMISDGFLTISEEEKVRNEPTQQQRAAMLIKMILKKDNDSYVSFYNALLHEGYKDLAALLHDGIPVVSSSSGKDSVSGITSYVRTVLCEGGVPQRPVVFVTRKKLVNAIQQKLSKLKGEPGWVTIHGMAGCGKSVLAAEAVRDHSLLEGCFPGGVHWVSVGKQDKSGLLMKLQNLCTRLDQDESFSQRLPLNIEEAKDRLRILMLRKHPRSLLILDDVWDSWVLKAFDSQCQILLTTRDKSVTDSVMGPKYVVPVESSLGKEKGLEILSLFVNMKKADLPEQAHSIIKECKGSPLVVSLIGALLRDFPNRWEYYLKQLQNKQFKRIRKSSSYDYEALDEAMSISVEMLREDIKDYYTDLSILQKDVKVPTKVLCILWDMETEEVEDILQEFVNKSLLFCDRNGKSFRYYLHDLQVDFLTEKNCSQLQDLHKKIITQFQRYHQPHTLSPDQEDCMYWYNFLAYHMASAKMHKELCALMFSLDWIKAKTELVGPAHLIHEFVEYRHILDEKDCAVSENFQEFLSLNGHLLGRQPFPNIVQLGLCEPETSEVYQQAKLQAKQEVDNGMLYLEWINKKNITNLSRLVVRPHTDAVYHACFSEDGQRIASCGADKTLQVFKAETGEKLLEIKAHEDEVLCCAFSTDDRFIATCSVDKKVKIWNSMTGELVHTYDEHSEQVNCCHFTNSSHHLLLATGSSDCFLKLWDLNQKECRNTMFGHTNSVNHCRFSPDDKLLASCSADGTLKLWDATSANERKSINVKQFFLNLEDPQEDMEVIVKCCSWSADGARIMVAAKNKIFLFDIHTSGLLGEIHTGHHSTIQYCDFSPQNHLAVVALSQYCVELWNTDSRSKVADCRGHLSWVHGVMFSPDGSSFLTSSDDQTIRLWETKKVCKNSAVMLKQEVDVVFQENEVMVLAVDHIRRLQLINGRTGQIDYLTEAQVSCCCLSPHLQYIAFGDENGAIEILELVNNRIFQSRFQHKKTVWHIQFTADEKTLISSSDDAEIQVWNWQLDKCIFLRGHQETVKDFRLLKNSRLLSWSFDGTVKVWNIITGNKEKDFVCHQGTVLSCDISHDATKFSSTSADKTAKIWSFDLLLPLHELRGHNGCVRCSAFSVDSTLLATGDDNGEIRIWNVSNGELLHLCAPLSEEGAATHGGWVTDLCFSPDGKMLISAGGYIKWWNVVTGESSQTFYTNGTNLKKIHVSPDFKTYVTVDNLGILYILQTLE

In the case of `COc1ccc(C=C2SC(=Nc3ccccc3)NC2=O)cc1OC`, the Ki [1] is reported as > 10 µM (inactive), the Ki [2] is reported as 1 µM (active) and the Ki [3] is reported as > 10 µM (inactive). The Ki [4] was > 10 µM (inactive), the Ki [5] was 1.58 µM (active) and the Ki [6] was > 10 µM (inactive). The Ki [7] was 6.31 µM (active), the Ki (LIM domain kinase 1) was > 10 µM (inactive) and the Ki [8] was > 10 µM (inactive). The Ki [9] was > 10 µM (inactive), the Ki [10] was > 10 µM (inactive) and the Ki [11] was > 10 µM (inactive). For the same compound, the Ki [12] was > 10 µM (inactive), the Ki [13] was > 10 µM (inactive) and the Ki [14] was > 10 µM (inactive). For the same compound, the Ki [15] was 3.98 µM (active), the Ki [16] was 6.31 µM (active) and the Ki [17] was > 10 µM (inactive). The Ki [18] was 6.31 µM (active) and the Ki [19] was > 10 µM (inactive).

For `Cc1nc(Nc2ncc(C(=O)Nc3c(C)cccc3Cl)s2)cc(N2CCN(CCO)CC2)n1` [DASATINIB], the Ki [8] was > 10 µM (inactive), the Ki [20] was > 7.94 µM (inactive) and the Ki [21] was > 3.98 µM (inactive). The IC50 [22] was > 10 µM (inactive), the Ki [23] was > 7.94 µM (inactive) and the Ki [24] was > 1.58 µM (inactive). The Ki [25] was > 3.98 µM (inactive), the Ki [26] was > 10 µM (inactive) and the Ki [27] was 1.26 µM (active). The Ki [28] was > 1.26 µM (inactive) and the IC50 [29] was > 10 µM (inactive).

With `Cc1ccc(-c2nc3cc(NC(=O)c4cccs4)ccc3[nH]2)o1` the IC50 [30] was > 100 µM (inactive).
